Patent US5015742A, “Synthesis and elucidation of azamitosene and iminoazamitosene” (Arizona Board of Regents, priority 1990, dated 1991)
“Also recorded” adds a separate entry of the source. Each block holds one compound with its values, some of them ahead of it.

What was measured:
[1] = comparison or calibration value; cited from earlier work
[2] = Kinetics of hydrolysis and syn/anti isomerization in aqueous buffer; assay type: physicochemical; conditions: for pKa: aqueous buffer
Text: Iminoquinone Fate in Aqueous Buffers. […] Outlined in Scheme 4 below, are the pertinent equilibria and hydrolytic reactions of 2a in aqueous buffer. Above pH 7, the predominate reaction is equilibrium formation of a syn/anti mixture of 2a by general acid/base catalyzed processes. Much below pH 7, the predominate reaction is acid-catalyzed hydrolysis of 2a to the corresponding quinone 1a.
The studies which led to the mechanism outlined in Scheme 4 will now be described. Both hydrolysis and the equilibrium isomerization of pure syn 2a or pure anti 2a are associated with an absorbance change at 320 nm. Plots of absorbance vs time obeyed a first-order rate law over the entire pH range studied. The kobsd values were dependent on the concentration of the buffers employed to hold pH over the range of pH=3 to 9. Lyate-dependent values of kobsd (klyate) were obtained by measuring kobsd values over a 10-fold range of buffer concentration at constant pH and then extrapolating to the klyate value at zero buffer concentration.
The rate law for the reaction of pure syn 2a, based on the mechanism shown in Scheme 4 below, is provided in Equation 1: [formula] wherein: k1, k-1, k2, k3, Ka4 and Ka5 are constants found in Scheme 4 and aH is the proton activity determined with a pH electrode. The first term of equation 1 pertains to the hydrolysis of 2aH^2+ under the conditions aH <Ka5, the second term pertains to hydrolysis of 2aH and third term pertains to the syn/anti equilibration. […] Consistent with the postulated mechanism, the kinetically-obtained value of pKa4 approximates the value obtained by spectrophotometric titration (2.6±0.3).
(§1) Kinetic Studies of Hydrolysis. The hydrolytic studies of 2a and the reoxidation studies of 19 and 20 were carried out in aerobic aqueous buffer at 30.0°±0.2° C. A dimethyl sulfoxide stock of the compound to be studied was prepared fresh and 50 μl of this stock was added to 2.95 mL of buffer. In the cases of 19 and 20, the dimethyl sulfoxide stock was kept under a blanket of argon. The absorbance vs time data were obtained on a Perkin-Elmer 559 or a Lambda-3 UV-vis spectrophotometer and fit to a first-order rate law.

[3] = tested on: cloned human ovarian cancer cell lines; assay: Antitumor activity in cloned human ovarian cancer cell lines; assay type: cell-based
[4] = tested on: cloned human colon cancer cell lines; assay: Antitumor activity in cloned human colon cancer cell lines; assay type: cell-based
[5] = tested on: fresh human ovarian tumors; assay: Antitumor activity in fresh human ovarian tumors; assay type: cell-based
fresh human colon tumors = assay: Antitumor activity in fresh human colon tumors; assay type: cell-based
[6] = pKa by spectrophotometric titration; assay type: physicochemical; conditions: water, 1.0 m kcl
Method: pKa constants were determined by spectrophotometric titration in μ=1.0 (KCl) aerobic aqueous solvent at 30°±0.2° C. with a Cary 15 outfitted with a titration cell. Acid dissociations from hydroquinones in strong base were measured under an argon atmosphere with Thunberg cuvettes. Details of the methodoloqy employed are found in a previous publication.

[7] = Aerobic oxidation (oxygen reactivity) of reduced species in aqueous buffer; assay type: physicochemical
Method: The oxygen reactivity of 19 and 20 was studied in aerobic buffers (μ=1.0, KCl) at 30° C. Both of these species are converted to the corresponding oxidized analogues, 2a and 1a, by first-order processes. Isolation studies and UV-visible spectra of completed reactions confirmed the formation of both analogues. As expected from the relative reduction potentials, the oxidation of 19 is slow enough to be studied up to pH=11 whereas the oxidation of 20 occurs at stopped-flow rates much above neutrality.
The profile for the oxidation of 19 is consistent with oxidation of both the neutral species (19) and the monoprotonated species (19H^+), see Scheme 5, below. [drawing 11] The rate law for the mechanism in Scheme 5 is found in Equation 5. […] The solid curve of Plot B in FIG. 3 was computer generated with equation 5 using the values of the constants shown in Scheme 5. Consistent with the proposed mechanism, the kinetically-determined value of Ka is nearly the same as the value determined spectrophotometrically (9.44, entry 11 of Table I). The greater oxygen reactivity of 19, compared to 19H^+, is consistent with the decreasing Em values (i.e., decreasing stability of the reduced species) observed in the Nernst Fit (Plot B, FIG. 2) at pH values>6.
as §1

[8] = syn/anti isomerization equilibrium (product study, thermodynamic cycles, NMR); assay type: physicochemical; conditions: for K for syn/anti isomerization: aqueous buffer
Method: Below pH 7, the preparative reaction of pure syn 2a afforded a mixture of isomers; [syn 2a]/[anti 2a]=0.7 by ^1 H NMR. [drawing 5]
The K value (~1) for syn/anti isomerization of 2a in aqueous buffer was assessed from […] thermodynamic cycles and from a product study. The results of the product study indicate K=0.7. The two thermodynamic cycles shown in Scheme 4 indicate K=1 to 2. These thermodynamic cycles were constructed by considering that protonation of syn/anti 2a provides the same cationic species 2aH^+ and that acid dissociation from syn/anti 2a probably provides the same anionic species 2aH^-.
The thermoneutral syn/anti isomerization in aqueous buffer requires that the imino proton of anti 2a hydrogen bond to the nitrogen of the enolized acetamido group.
Product Isolation of syn 2a Reaction at pH 8. To a solution of 15 mg (0.058 mmol) of syn 2a in 1 mL of dimethyl sulfoxide was added 4 mL of pH 8 phosphate buffer. The reaction mixture was stirred at room temperature for 48 hours and then diluted with 10 mL of water and extracted 3× with 20 mL portions of chloroform. Concentration of the dried extracts (sodium sulfate) afforded 12 mg (80%) of a mixture of isomers: [syn/anti]=0.7 by ^1 H NMR.

[9] = Two-electron reduction potentials by cyclic voltammetry and Nernst fit
Method: Quinone 1a and iminoquinone 2a two-electron reduction potentials were determined in anaerobic aqueous buffers (μ=1, NaClO4) at 25° C. over the pH range -1 to 10 employing conventional cyclic voltammetry. The working electrode was a graphite mull, the auxillary electrode was platinum, and the reference couple was Ag/AgCl.
The pKa values, with error limits, were determined. spectrophotometrically.
The determination of Em values was carried out with a BAS 27 voltammograph. Measurements were carried out in μ=1.0 (NaClO4) aqueous buffer at 25°-26° C. under an atmosphere of argon with a BAS Ag/AgCl gel electrode as reference. […] The midpoint potential Em was determined from the average of the anodic (Ep,a) and cathodic (Ep,c) potentials.
For each of the redox couples, 1a/20 and 2a/19, >20 Em determinations were made over the pH range studied. For each Em value of a couple, and Eo value was calculated from the Nernst equation substituted with the acid dissociation constants in Table I and the proton activity determined with a pH meter. The average of all Eo determinations was then substituted into the Nernst equation, with which the solid curve for the couple was generated.

[10] = N(4)-protonated species, 30° C., μ = 1.0 (KCl)
[11] = amide proton, 30° C., μ = 1.0 (KCl)
[12] = buffer-catalyzed syn/anti isomerization

hydrolytic stability below pH 6 [2]: extremely slow
SMILES: CC(=O)NC1=C(C)C(=O)c2c(nc3n2CCC3OC(C)=O)C1=N (racemic) [2b, syn/anti 6-Acetamido-5-imino-7-methyl-2,3-dihydro-1H-pyrrolo[1,2-a]benzimidazol-8-one-3-Acetate]

completed hydrolysis, product by UV-visible spectra ([2]; pH 0 to pH 6): quantitative formation of 1a
K for syn/anti equilibration ([8]; dimethyl sulfoxide-d6): 15
[syn]/[anti] ratio ([8]; preparative reaction of pure syn 2a, ^1 H NMR, pH 8 phosphate buffer, 48 hours): 0.7
SMILES: CC(=O)NC1=C(C)C(=O)c2c(nc3n2CCC3)C1=N [syn 2a, 6-Acetamido-5-imino-7-methyl-2,3-dihydro-1H-pyrrolo[1,2-a]benzimidazol-8-one]

pKa [6, 10]: < 0
pKa [6, 11]: 11.24 ± 0.01
pKa ([6]; protonated imino group (2aH^+), spectrophotometric, 30° C., μ = 1.0 (KCl)): 2.6 ± 0.3
pKa ([2]; acid dissociation of 2aH^+ (protonated imine), pH profile FIG. 1, read-out: pKa): ~2.5
pKa ([2]; acid dissociation of diprotonated 2a, pH profile FIG. 1, read-out: pKa): < 0
pKa ([2]; kinetically obtained, fit of equation 1, 30° C., read-out: pKa4): 3.4
hydrolytic stability below pH 6 [2]: extremely slow
k(acetate) [2, 12]: 0.0045 M⁻¹ s⁻¹
k(dibasic phosphate) [2, 12]: 0.000171 M⁻¹ s⁻¹
k(monobasic phosphate) [2, 12]: 0.000421 M⁻¹ s⁻¹
kga for acetic acid ([2]; general acid catalyzed hydrolysis, pH 3.5 to 6): 0.003 M⁻¹ s⁻¹
k3/Ka5 ([2]; hydrolysis of diprotonated 2a, fit of equation 1, 30° C.): 0.045 M⁻¹ s⁻¹
k2 (rate of water addition to 2aH^+) ([2]; hydrolysis of monoprotonated 2a, 30° C.): 0.048 s⁻¹
hydrolytic stability at pH values ≥7 ([2]; pH ≥7): hydrolytically stable
hydrolysis rate at pH 7.0 ([2]; pH=7.0, worked out from pKa and k2): 1.0×10^-6 s^-1
k1 + k-1 ([2]; syn/anti equilibration, lyate term, above pH 7, 30° C.): 1.03e-05 s⁻¹
K for syn/anti isomerization ([8]; overall): ~ 1
K for syn/anti isomerization ([8]; product study): 0.7
Eo (reduction potential at pH=0) ([9]; couple 2a/19, Nernst fit): 1.11 V (NHE)
E values of syn and anti isomers ([9]; cyclic voltammetry, syn versus anti): identical E values for both isomers
reduction potential versus quinone ([9]; iminoquinone compared with quinone analogue): much higher reduction potentials
SMILES: CC(=O)NC1=C(C)C(=O)c2c(nc3n2CCC3)C1=N [2a, syn/anti 6-Acetamido-5-imino-7-methyl-2,3-dihydro-1H-pyrrolo[1,2-a]benzimidazol-8-one]
hydrolytic stability much below pH 6 / in acid ([2]; acid, much below pH 6): rapidly hydrolyses; also recorded: rapidly hydrolyzed

More lines, now with the values behind:

SMILES: N#CC1=C(C#N)C(=O)C(Cl)=C(Cl)C1=O [dichlorodicyanoquinone (DDQ), dichlorodicyanoquinone]
Eo [1]: 946 mV, NHE

SMILES: CC(=O)OC1CCn2c1nc1c2C(=O)C(C)=C(N2CC2)C1=O (centres unmarked) [1c, 6-(N-aziridinyl)-7-methyl-2,3-dihydro-1H-pyrrolo [1,2-a]benzimidazole 5,8-dione-3-Acetate]
antitumor activity [3]: potent antitumor agents
antitumor activity [4]: potent antitumor agents
antitumor activity [5]: potent antitumor agents
antitumor activity (fresh human colon tumors): potent antitumor agents

SMILES: CC(=O)Nc1c(C)c(O)c2c(nc3n2CCC3)c1O [compound 20]
pKa ([6]; 5-OH of hydroquinone, 30° C., μ = 1.0 (KCl)): 11.1
pKa ([6]; 8-OH of hydroquinone (20^- to 20^2-), 30° C., μ = 1.0 (KCl), approximated): > 14
pKa [6, 10]: 6.02 ± 0.2
pKa [6, 11]: > 14
oxidation rate above pH 7.5 ([7]; above pH 7.5): too fast to measure
oxidation rate of 20^- ([7]; assuming rate-determining oxidation of 20^-): 1566 s⁻¹

SMILES: CC(=O)Nc1c(C)c(O)c2c(nc3n2CCC3)c1N [compound 19, 6-Acetamido-5-amino-8-hydroxy-7-methyl-2,3-dihydro-1H-pyrrolo[1,2-a]benzimidazole]
pKa [6, 10]: 3.67 ± 0.16
pKa ([6]; dissociation of hydroxyl, amide and amine protons: 19^2- to 19^3-, approximated): > 15
pKa ([6]; dissociation of hydroxyl, amide and amine protons: 19^- to 19^2-, approximated): > 15
pKa ([6]; dissociation of hydroxyl, amide and amine protons: 19 to 19^-, approximated): > 15
pKa ([6]; protonated 5-amino group (19H^+), 30° C., μ = 1.0 (KCl)): 9.44
reoxidation rate relative to 20 ([7]; physiological pH): two orders of magnitude slower
fold slower oxidation than 20 ([7]; physiological pH (7.4)): about 100 ×
stability of reduced species in acid ([9]; acid solution): acid-stable

SMILES: CC1=C(N2CC2)C(=O)c2nc3n(c2C1=O)CCC3OC(N)=O (centres unmarked) [1d, 6-N-Aziridinyl-7-methyl-2,3-dihydro-1H-pyrrolo [1,2-a]benzimidazole-5,8-dione-3-Carbamate]
antitumor activity [3]: potent antitumor agents
antitumor activity [4]: potent antitumor agents
antitumor activity [5]: potent antitumor agents
antitumor activity (fresh human colon tumors): potent antitumor agents

SMILES: CC(=O)NC1=C(C)C(=O)c2c(nc3n2CCC3)C1=O [1a, 6-Acetamido-7-methyl-2,3-dihydro-1H-pyrrolo [1,2-a]benzimidazole-5,8-dione]
pKa [6, 10]: 1.54 ± 0.06
pKa [6, 11]: 11.3 ± 0.13
hydrolytic stability, entire pH range studied ([2]; aqueous solution, pH range -1 to 10): hydrolytically stable
Eo (reduction potential at pH=0) ([9]; couple 1a/20, Nernst fit): 612 mV (NHE)
